Measured values as given in ChEMBL document CHEMBL3885861, “Open TG-GATES”.

Species: Rattus norvegicus
Experiment: Open TG-GATES - Regimen: Single
Type: toxicity, organism-based, Sprague-Dawley
Design: regimen Single, gender Male, age 6 weeks
Details: in vivo, po, 100 mg/kg, route gavage, dose level High; for APTT / Bas / Eos / Fbg / Hb / Ht / Lym / MCH / MCHC / MCV / Mono / Neu / PT / Plat / RBC / Ret / WBC: tissue Blood; for KIDNEY_L / KIDNEY_R / KIDNEY_TOTAL: tissue Kidney; for LIVER: tissue Liver; for A/G / ALP / ALT / AST / BUN / CRE / Ca / Cl / DBIL / GLC / IP / K / LDH / Na / PL / RALB / TBIL / TC / TG / TP / gamma-GTP: tissue Plasma

Compound: OCCOCCN1CCN(C(c2ccccc2)c2ccc(Cl)cc2)CC1 (configuration not stated) [HYDROXYZINE]
- TERMINAL_BW (3 h): 192.6 g
- APTT (3 h): 16.4 s
- Bas (3 h): 0.2%
- Eos (3 h): 0.8%
- Fbg (3 h): 276.2 mg/dL
- Hb (3 h): 12.4 g/dL
- Ht (3 h): 38.5%
- Lym (3 h): 79.6%
- MCH (3 h): 21.5 pg
- MCHC (3 h): 32.3%
- MCV (3 h): 66.5 fL
- Mono (3 h): 2.8%
- Neu (3 h): 16%
- PT (3 h): 16 s
- Plat (3 h): 107.8 x10_4/uL
- RBC (3 h): 579.6 x10_4/ul
- Ret (3 h): 9.2%
- WBC (3 h): 66.5 x10_2/uL
- KIDNEY_L (3 h): 0.9 g
- KIDNEY_R (3 h): 0.9 g
- KIDNEY_TOTAL (3 h): 1.8 g
- LIVER (3 h): 8.5 g
- A/G (3 h): 0.9
- ALP (3 h): 1704.8 IU/L
- ALT (3 h): 45.4 IU/L
- AST (3 h): 78 IU/L
- BUN (3 h): 10.2 mg/dL
- CRE (3 h): 0.2 mg/dL
- Ca (3 h): 10.7 mg/dL
- Cl (3 h): 105.8 meq/L
- DBIL (3 h): 0.008 mg/dL
- GLC (3 h): 167.2 mg/dL
- IP (3 h): 9.5 mg/dL
- K (3 h): 4.4 meq/L
- LDH (3 h): 107.6 IU/L
- Na (3 h): 142.4 meq/L
- PL (3 h): 132.4 mg/dL
- RALB (3 h): 2.5 g/dL
- TBIL (3 h): 0.048 mg/dL
- TC (3 h): 65.8 mg/dL
- TG (3 h): 40 mg/dL
- TP (3 h): 5.4 g/dL
- gamma-GTP (3 h): 1 IU/L
- TERMINAL_BW (6 h): 190.6 g
- APTT (6 h): 16.5 s
- Bas (6 h): 0%
- Eos (6 h): 0.8%
- Fbg (6 h): 260.2 mg/dL
- Hb (6 h): 12.8 g/dL
- Ht (6 h): 39.9%
- Lym (6 h): 80.4%
- MCH (6 h): 21.2 pg
- MCHC (6 h): 32.1%
- MCV (6 h): 65.8 fL
- Mono (6 h): 2.6%
- Neu (6 h): 15.6%
- PT (6 h): 16 s
- Plat (6 h): 118.2 x10_4/uL
- RBC (6 h): 606.4 x10_4/ul
- Ret (6 h): 8.5%
- WBC (6 h): 87.3 x10_2/uL
- KIDNEY_L (6 h): 0.9 g
- KIDNEY_R (6 h): 0.9 g
- KIDNEY_TOTAL (6 h): 1.8 g
- LIVER (6 h): 7.9 g
- A/G (6 h): 0.8
- ALP (6 h): 1674.2 IU/L
- ALT (6 h): 39.8 IU/L
- AST (6 h): 78.2 IU/L
- BUN (6 h): 8.6 mg/dL
- CRE (6 h): 0.2 mg/dL
- Ca (6 h): 10.7 mg/dL
- Cl (6 h): 106.8 meq/L
- DBIL (6 h): 0.01 mg/dL
- GLC (6 h): 180.8 mg/dL
- IP (6 h): 9.7 mg/dL
- K (6 h): 4.2 meq/L
- LDH (6 h): 64.2 IU/L
- Na (6 h): 141.8 meq/L
- PL (6 h): 121.8 mg/dL
- RALB (6 h): 2.4 g/dL
- TBIL (6 h): 0.062 mg/dL
- TC (6 h): 63.8 mg/dL
- TG (6 h): 28 mg/dL
- TP (6 h): 5.3 g/dL
- gamma-GTP (6 h): 1 IU/L
- TERMINAL_BW (9 h): 190.3 g
- APTT (9 h): 15.9 s
- Bas (9 h): 0.2%
- Eos (9 h): 0.8%
- Fbg (9 h): 288.6 mg/dL
- Hb (9 h): 13 g/dL
- Ht (9 h): 40.5%
- Lym (9 h): 78.8%
- MCH (9 h): 21.5 pg
- MCHC (9 h): 32%
- MCV (9 h): 67.2 fL
- Mono (9 h): 2.8%
- Neu (9 h): 16.6%
- PT (9 h): 15.6 s
- Plat (9 h): 116.3 x10_4/uL
- RBC (9 h): 603.4 x10_4/ul
- Ret (9 h): 8.6%
- WBC (9 h): 75.7 x10_2/uL
- KIDNEY_L (9 h): 0.9 g
- KIDNEY_R (9 h): 0.9 g
- KIDNEY_TOTAL (9 h): 1.8 g
- LIVER (9 h): 7.7 g
- A/G (9 h): 0.9
- ALP (9 h): 1671.6 IU/L
- ALT (9 h): 36.2 IU/L
- AST (9 h): 76.6 IU/L
- BUN (9 h): 8.2 mg/dL
- CRE (9 h): 0.2 mg/dL
- Ca (9 h): 10.6 mg/dL
- Cl (9 h): 106.6 meq/L
- DBIL (9 h): 0.016 mg/dL
- GLC (9 h): 182.4 mg/dL
- IP (9 h): 10.6 mg/dL
- K (9 h): 4.3 meq/L
- LDH (9 h): 63 IU/L
- Na (9 h): 142 meq/L
- PL (9 h): 124.4 mg/dL
- RALB (9 h): 2.5 g/dL
- TBIL (9 h): 0.066 mg/dL
- TC (9 h): 64.6 mg/dL
- TG (9 h): 34.2 mg/dL
- TP (9 h): 5.4 g/dL
- gamma-GTP (9 h): 1 IU/L
- TERMINAL_BW (24 h): 198.7 g
- APTT (24 h): 16.8 s
- Bas (24 h): 0%
- Eos (24 h): 0.8%
- Fbg (24 h): 253.6 mg/dL
- Hb (24 h): 13.3 g/dL
- Ht (24 h): 40.4%
- Lym (24 h): 78.4%
- MCH (24 h): 22.2 pg
- MCHC (24 h): 32.9%
- MCV (24 h): 67.4 fL
- Mono (24 h): 3.6%
- Neu (24 h): 16.4%
- PT (24 h): 16.8 s
- Plat (24 h): 123.7 x10_4/uL
- RBC (24 h): 599.6 x10_4/ul
- Ret (24 h): 7.7%
- WBC (24 h): 74.7 x10_2/uL
- KIDNEY_L (24 h): 0.9 g
- KIDNEY_R (24 h): 0.9 g
- KIDNEY_TOTAL (24 h): 1.9 g
- LIVER (24 h): 9 g
- A/G (24 h): 0.8
- ALP (24 h): 1880 IU/L
- ALT (24 h): 45.6 IU/L
- AST (24 h): 75.8 IU/L
- BUN (24 h): 15.6 mg/dL
- CRE (24 h): 0.2 mg/dL
- Ca (24 h): 11.1 mg/dL
- Cl (24 h): 107 meq/L
- DBIL (24 h): 0.016 mg/dL
- GLC (24 h): 181.6 mg/dL
- IP (24 h): 7.7 mg/dL
- K (24 h): 4.2 meq/L
- LDH (24 h): 76 IU/L
- Na (24 h): 141.4 meq/L
- PL (24 h): 135 mg/dL
- RALB (24 h): 2.6 g/dL
- TBIL (24 h): 0.06 mg/dL
- TC (24 h): 75.4 mg/dL
- TG (24 h): 52.2 mg/dL
- TP (24 h): 5.6 g/dL
- gamma-GTP (24 h): 0.6 IU/L
